Reference: patent US20160158179A1, “NANOEMULSION THERAPEUTIC COMPOSITIONS AND METHODS OF USING THE SAME” (THE REGENTS OF THE UNIVERSITY OF MICHIGAN, priority 2008, published 2016)
Values after ≈ are worked out from the molar mass of the structure shown.

What was measured:
Myeloperoxidase = test: Detection of neutrophil sequestration (myeloperoxidase assay); assay type: in vivo, Sprague-Dawley rats; details: infected burn wound, 32 hours post-injury
Experimental: The occlusive dressing and TELFA was removed.
100 mg of skin tissue was mechanically homogenized in 1 mL ice cold potassium phosphate buffer consisting of 115 mM monobasic potassium phosphate (Sigma Aldrich, Milwaukee, Wis.). Homogenates were centrifuged at 3000 g for 10 min at 4° C., the supernatants were removed and the pellets were re-suspended in 1 mL C-TAB buffer consisting of dibasic potassium phosphate, cetyltrimethylammonium bromide, and acetic acid (Sigma Aldrich, Milwaukee, Wis.). The suspensions were sonicated (Branson Sonifier 250, Danbury, Conn.) on ice for 40 seconds. Homogenates were centrifuged at 3000 g for 10 min at 4° C. and the supernatant collected. Supernatants were incubated in 60° C. water bath for 2 hours (Shaker Bath, 2568; Forma Scientific, Marietta, Ohio). Samples were stored at −80° C. until needed or assayed immediately.

[1] = test system: IL1-β, IL-6, TNF-α, CINC-1, CINC-3, IL-10 and TGF-β; test: Dermal cytokine analysis (ELISA) of burn wound skin; assay type: in vivo, Sprague-Dawley rats
Experimental: After drying, an occlusive dressing of sterile […] […] Stock nanoemulsion […] […] The occlusive dressing and TELFA was removed. […] Homogenates were centrifuged at 3000 g for 5 minutes and the supernatants collected and stored frozen at -80° C. until use. Rat IL1-β, IL-6, […]-10 and TGF-β were measured by sandwich enzyme-linked immunosorbent assay (ELISA) using antibodies and reagents from R&D Systems, Inc. (Minneapolis, Minn.). The assay was carried out in 96-well microplates (Immunoplate Maxisorb, Nunc, Neptune, N.J.) according to the kit instructions and samples were read using a microplate reader (Biotek Instruments, Winooski, Vt.) at 450 nm with a wavelength correction of 540 nm. Cytokine concentrations were determined using the plate reader software and a 7-point standard curve. Results were adjusted for previous dilution and expressed as pg/mL.

Stenotrophomonas strains = test: Checkerboard synergy study (FIC/FBC index); assay type: cell-based, Stenotrophomonas maltophilia; details: Stenotrophomonas; in combination with P4075EC+EDTA
[2] = test system: Stenotrophomonas maltophilia; test: MIC and MBC determination (CLSI, alamar blue), CF isolates
Burkholderia strains = test: Checkerboard synergy study (FIC/FBC index); assay type: cell-based, Burkholderia cenocepacia; details: Burkholderia; in combination with P4075EC+EDTA
Acinetobacter baumannii = test: MIC and MBC determination (CLSI, alamar blue); details: Acinetobacter
Pseudomonas aeruginosa = test: MIC and MBC determination (CLSI, alamar blue), CF isolates; details: Pseudomonas
Burkholderia cenocepacia = test: as above
Burkholderia cepacia = test: MIC determination, CLSI microdilution with alamar blue; assay type: cell-based; details: Burkholderia cepacia (n = 5); nanoemulsions in the presence of 5 mM EDTA
Acinetobacter strains = test: Checkerboard synergy study (FIC/FBC index); assay type: cell-based, Acinetobacter baumannii; details: Acinetobacter; in combination with P4075EC+EDTA
Proteus mirabilis = test: MIC determination, CLSI microdilution with alamar blue; assay type: cell-based; details: Proteus mirabilis (n = 5); nanoemulsions in the presence of 5 mM EDTA; in µg/mL

Molecule: NCc1ccc(S(N)(=O)=O)cc1 [Sulfamylon, mafenide acetate]
- myeloperoxidase (Myeloperoxidase): 0.08 ± 0.02 µg/mL
- level of IL-10 or TGF-β in the infected burn wound ([1]; 32 hours): did not suppress
- dermal levels of proinflammatory cytokines IL-6, TNF-α, CINC-1 or CINC-3 compared to controls ([1]; infected burn wound): did not result in any significant alteration

Molecule: NC[C@H]1O[C@H](O[C@H]2[C@H](O)[C@@H](O[C@H]3O[C@H](CO)[C@@H](O)[C@H](N)[C@H]3O)[C@H](N)C[C@@H]2N)[C@H](N)C[C@@H]1O [Tobramycin]
- Overall synergy result (Stenotrophomonas strains): No Interference
- MIC 50 ([2]; Stenotrophomonas): >32 µg/mL
- MIC 90 ([2]; Stenotrophomonas): >32 µg/mL
- MIC 50 ([2]; Stenotrophomonas maltophilia): > 32 µg/mL
- MIC 90 ([2]; Stenotrophomonas maltophilia): > 32 µg/mL
- Overall synergy result (Burkholderia strains): No Interference
- MIC 50 (Acinetobacter baumannii): 1 µg/mL (≈ 2.14 µM)
- MIC 90 (Acinetobacter baumannii): 16 µg/mL (≈ 34.2 µM)
- MIC 50 (Pseudomonas aeruginosa): 1 µg/mL (≈ 2.14 µM)
- MIC 90 (Pseudomonas aeruginosa): 16 µg/mL (≈ 34.2 µM)
- MIC 90 (Burkholderia cenocepacia; Burkholderia): >32 µg/mL
- MIC 50 (Burkholderia cenocepacia; Burkholderia cenocepacia): > 32 µg/mL
- MIC 90 (Burkholderia cenocepacia; Burkholderia cenocepacia): > 32 µg/mL
- MIC 50 (Burkholderia cepacia): 16 µg/mL
- Overall synergy result (Acinetobacter strains): No Interference

Molecule: Piperacillin/tazobactam
- MIC Range (Proteus mirabilis): <=0.5-1
